One data set concerns the target T1, Abl(T315I)(h) (Homo sapiens, UniProt P00519, T315I).
T1 construct: purchased Caliper Life Sciences
Put plainly: Inhibition of other kinases IC50 (Table 2). The data set is classed as biochemical. As for the experimental part:
(§1) The Aurora and other kinase assays described here were performed on two Caliper Life Sciences systems, the LC3000 and the Desktop Profiler. These provide data on enzyme activity via measurement of the relative amounts of phosphorylated or unphosphorylated fluorescently labelled substrate peptide at the end of an enzymatic reaction. These different states of peptide are resolved by applying a potential difference across the sample. The presence of a charged phosphate group on the product (as opposed to the substrate) causes a different peptide mobility between the two peptides. This is visualized by excitation of a fluorescent label on the substrate and product peptides and represented as peaks within the analysis software.

The conditions of data set [1]: from C=CCOc1cccc(Nc2ncc(F)c(N[C@H]3[C@@H](C(N)=O)[C@@H]4C=C[C@H]3C4)n2)c1; rcm bond; Grubbs 2nd generation; dichloromethane; 19.2 mM; 40.0 °C; 3.0 h.
A further data set deals with T2, CDK2/cyclinA(h) (Homo sapiens, UniProt P24941).
T2 construct: purchased Caliper Life Sciences
Put plainly: Other kinases, single-concentration inhibition (Table 3). It counts as biochemical. Particulars: 1 μM. The procedure, abridged:
(§2)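 Single-point screen: fluorescent peptide plus ATP, 90 min at 25 °C, EDTA stop, mobility-shift separation; % inhibition vs controls.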

For a further data set, the target named is T3, PDGFRα(h) (Homo sapiens, UniProt P16234).
T3 construct: purchased Caliper Life Sciences
The description is as above. The data set is classed as biochemical. Particulars: 1 μM. The procedure, abridged:
as §2

Another data set has as its target T4, SIK(h) (Homo sapiens, UniProt P57059).
T4 construct: purchased Caliper Life Sciences
The description is as above. Particulars: 1 μM. It counts as biochemical. The essentials:
as §2

Another data set deals with T5, Fms(h) (Homo sapiens, UniProt P07333).
T5 construct: purchased Caliper Life Sciences
The description is as above. It counts as biochemical. Particulars: 1 μM. The essentials:
as §2

A further data set deals with T6, cSRC(h) (Homo sapiens, UniProt P12931).
T6 construct: purchased Caliper Life Sciences
The data set is described as above. The data set is classed as biochemical. Particulars: 1 μM. The essentials:
as §2

For a further data set, the target named is T7, FAK(h) (Homo sapiens, UniProt Q05397).
T7 construct: purchased Caliper Life Sciences
Put plainly: Inhibition of other kinases IC50 (Table 2). The data set is classed as biochemical. How it is done: as §1

The target of another data set is T8, Pyk2(h) (Homo sapiens, UniProt Q14289).
T8 construct: purchased Caliper Life Sciences
Description: Inhibition of other kinases IC50 (Table 2). The data set is classed as biochemical. As for the experimental part:
as §1

T7 sequence (Q05397 whole entry): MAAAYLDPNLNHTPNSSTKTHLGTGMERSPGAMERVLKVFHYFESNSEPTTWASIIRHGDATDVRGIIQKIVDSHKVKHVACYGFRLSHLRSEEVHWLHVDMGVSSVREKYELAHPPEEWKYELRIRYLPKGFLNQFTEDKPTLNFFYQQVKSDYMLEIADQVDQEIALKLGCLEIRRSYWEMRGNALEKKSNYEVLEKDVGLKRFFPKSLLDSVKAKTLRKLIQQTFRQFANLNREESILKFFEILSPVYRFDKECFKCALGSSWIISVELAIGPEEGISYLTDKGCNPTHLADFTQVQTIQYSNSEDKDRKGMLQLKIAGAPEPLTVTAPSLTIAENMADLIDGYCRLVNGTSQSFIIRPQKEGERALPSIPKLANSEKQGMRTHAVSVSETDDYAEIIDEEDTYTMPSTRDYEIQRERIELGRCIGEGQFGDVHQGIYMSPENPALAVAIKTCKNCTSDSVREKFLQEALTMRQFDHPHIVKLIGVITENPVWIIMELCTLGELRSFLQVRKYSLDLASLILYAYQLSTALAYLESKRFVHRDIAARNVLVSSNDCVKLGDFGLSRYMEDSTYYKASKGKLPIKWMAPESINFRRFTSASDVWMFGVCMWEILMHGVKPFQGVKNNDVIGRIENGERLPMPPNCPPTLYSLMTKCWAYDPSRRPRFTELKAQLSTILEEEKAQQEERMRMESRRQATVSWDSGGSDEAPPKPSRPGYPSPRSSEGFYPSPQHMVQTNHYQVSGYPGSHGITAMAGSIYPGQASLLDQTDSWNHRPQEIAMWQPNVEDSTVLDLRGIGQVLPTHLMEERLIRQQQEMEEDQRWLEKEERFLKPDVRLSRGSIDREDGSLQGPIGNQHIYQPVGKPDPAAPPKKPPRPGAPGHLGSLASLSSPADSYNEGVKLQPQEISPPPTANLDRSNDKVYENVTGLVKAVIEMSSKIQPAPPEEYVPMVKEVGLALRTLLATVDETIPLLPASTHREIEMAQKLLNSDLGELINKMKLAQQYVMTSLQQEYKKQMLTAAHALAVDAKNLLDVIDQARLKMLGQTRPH
T6 sequence (P12931 whole entry): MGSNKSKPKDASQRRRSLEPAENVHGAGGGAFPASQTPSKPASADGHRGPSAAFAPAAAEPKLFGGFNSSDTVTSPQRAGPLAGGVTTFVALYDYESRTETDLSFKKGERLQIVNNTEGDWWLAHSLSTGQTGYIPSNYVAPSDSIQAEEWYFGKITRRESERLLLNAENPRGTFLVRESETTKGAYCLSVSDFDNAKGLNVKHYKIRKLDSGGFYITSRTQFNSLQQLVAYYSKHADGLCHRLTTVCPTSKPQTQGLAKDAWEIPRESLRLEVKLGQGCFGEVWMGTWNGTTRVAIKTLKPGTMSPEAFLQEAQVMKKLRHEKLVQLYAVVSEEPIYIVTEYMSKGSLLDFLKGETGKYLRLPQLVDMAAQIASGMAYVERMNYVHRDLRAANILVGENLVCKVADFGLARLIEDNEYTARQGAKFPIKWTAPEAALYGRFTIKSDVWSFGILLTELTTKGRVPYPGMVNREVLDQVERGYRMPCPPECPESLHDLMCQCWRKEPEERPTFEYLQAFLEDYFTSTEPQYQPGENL
T5 sequence (P07333 20-972): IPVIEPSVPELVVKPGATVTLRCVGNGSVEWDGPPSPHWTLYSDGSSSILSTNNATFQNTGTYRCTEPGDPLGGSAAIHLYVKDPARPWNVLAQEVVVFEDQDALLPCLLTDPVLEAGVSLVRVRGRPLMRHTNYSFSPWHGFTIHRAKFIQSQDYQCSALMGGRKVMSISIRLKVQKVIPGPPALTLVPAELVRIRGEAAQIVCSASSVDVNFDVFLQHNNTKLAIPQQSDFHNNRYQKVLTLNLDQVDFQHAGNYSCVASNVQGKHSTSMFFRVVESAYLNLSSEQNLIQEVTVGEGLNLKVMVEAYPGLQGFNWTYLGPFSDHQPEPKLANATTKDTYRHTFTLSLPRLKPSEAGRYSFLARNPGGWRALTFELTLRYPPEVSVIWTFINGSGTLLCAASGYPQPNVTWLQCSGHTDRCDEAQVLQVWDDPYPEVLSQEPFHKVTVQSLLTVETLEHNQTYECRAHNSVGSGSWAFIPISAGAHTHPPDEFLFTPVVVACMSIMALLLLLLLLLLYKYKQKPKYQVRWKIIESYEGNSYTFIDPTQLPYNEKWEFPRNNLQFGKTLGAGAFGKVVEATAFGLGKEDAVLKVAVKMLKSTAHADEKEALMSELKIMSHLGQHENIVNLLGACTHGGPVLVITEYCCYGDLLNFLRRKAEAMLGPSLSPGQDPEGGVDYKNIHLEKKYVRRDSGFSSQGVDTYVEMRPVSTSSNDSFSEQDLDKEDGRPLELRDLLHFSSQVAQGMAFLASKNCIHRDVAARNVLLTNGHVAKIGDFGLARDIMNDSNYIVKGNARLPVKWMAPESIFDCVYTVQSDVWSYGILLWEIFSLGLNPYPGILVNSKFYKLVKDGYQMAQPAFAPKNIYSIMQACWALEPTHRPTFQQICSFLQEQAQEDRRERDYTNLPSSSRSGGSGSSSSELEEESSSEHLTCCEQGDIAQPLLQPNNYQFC
T3 sequence (P16234 24-1089): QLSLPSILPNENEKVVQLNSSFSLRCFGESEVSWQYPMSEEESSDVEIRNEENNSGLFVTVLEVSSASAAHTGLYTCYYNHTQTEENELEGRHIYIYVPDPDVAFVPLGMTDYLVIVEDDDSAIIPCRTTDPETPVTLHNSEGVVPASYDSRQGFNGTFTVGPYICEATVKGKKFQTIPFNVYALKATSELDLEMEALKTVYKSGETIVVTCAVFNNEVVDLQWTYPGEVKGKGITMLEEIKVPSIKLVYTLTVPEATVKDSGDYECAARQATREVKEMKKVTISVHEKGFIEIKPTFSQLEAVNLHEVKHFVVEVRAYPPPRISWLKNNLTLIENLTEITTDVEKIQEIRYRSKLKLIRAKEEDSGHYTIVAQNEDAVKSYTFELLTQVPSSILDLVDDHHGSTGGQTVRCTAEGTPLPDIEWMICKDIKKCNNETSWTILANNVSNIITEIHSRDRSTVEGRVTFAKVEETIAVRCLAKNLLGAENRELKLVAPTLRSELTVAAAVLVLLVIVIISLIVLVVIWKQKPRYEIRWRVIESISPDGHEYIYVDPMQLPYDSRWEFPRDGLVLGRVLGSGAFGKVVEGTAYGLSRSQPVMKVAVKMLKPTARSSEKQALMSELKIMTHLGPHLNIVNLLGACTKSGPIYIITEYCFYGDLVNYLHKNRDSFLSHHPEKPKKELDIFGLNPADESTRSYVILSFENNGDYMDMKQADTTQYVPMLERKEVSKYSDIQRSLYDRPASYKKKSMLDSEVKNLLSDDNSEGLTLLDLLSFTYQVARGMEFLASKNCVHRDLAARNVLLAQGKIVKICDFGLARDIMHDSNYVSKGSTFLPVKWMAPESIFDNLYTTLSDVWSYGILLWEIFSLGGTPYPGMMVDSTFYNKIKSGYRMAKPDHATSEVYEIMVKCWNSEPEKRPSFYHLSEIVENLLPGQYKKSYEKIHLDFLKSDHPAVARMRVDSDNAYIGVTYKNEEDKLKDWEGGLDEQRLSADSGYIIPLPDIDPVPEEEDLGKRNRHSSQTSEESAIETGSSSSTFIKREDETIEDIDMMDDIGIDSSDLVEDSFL
T8 sequence (Q14289 whole entry): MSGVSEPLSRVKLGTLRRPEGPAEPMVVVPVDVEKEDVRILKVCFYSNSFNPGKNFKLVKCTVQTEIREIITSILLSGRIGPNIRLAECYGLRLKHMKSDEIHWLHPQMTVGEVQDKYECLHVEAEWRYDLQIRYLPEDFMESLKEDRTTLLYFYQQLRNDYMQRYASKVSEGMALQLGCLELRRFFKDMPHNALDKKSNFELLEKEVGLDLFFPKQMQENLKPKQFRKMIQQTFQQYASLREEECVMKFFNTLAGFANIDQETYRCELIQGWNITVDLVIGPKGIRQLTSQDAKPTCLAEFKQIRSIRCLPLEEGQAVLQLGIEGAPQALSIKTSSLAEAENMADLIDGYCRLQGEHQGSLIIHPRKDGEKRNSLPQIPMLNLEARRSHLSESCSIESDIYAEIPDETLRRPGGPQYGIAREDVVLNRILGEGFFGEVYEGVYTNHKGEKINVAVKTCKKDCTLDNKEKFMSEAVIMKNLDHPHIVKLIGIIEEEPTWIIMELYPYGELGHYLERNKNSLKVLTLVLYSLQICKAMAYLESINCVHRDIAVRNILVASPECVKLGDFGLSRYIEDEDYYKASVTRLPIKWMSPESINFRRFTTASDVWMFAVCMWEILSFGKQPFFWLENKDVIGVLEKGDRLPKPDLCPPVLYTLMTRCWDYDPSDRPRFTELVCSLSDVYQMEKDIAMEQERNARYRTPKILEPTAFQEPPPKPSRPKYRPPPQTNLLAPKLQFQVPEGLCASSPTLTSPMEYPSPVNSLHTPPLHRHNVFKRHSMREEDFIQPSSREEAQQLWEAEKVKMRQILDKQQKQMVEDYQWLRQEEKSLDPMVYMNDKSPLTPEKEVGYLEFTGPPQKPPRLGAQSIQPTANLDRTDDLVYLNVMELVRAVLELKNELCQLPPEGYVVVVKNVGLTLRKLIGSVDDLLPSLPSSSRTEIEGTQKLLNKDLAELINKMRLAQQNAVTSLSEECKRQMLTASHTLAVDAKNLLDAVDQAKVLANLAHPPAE

As to `NC(=O)[C@H]1[C@H]2C[C@H]3[C@H]1Nc1nc(ncc1F)Nc1cccc(c1)NC(=O)CS[C@@H]3C2` [Example 27], the IC50 on Abl(T315I)(h) lay in the range of 1 to 100 nM.

On to `C=C[C@@H]1C[C@@H]2/C=C/COc3cccc(c3)Nc3ncc(F)c(n3)N[C@H]2[C@H]1C(N)=O` (single isomer, unassigned) [Example 3], for which the ring closure, yield of all isomers in [1] stood at 15%.

Turning to `CN1CCN(c2ccc3cc2OCCS[C@@H]2C[C@@H]4C[C@H]2[C@@H](Nc2nc(ncc2F)N3)[C@H]4C(N)=O)CC1` [Example 22], on CDK2/cyclinA(h), the “% inhibition CDK2/cyclinA(h)” value is recorded as 96%. Besides, the “% inhibition PDGFRα(h)” value on PDGFRα(h) is given as 87%. On SIK(h), the “% inhibition SIK(h)” value stood at 25%. For the same molecule, the “% inhibition Fms(h)” value at Fms(h) worked out at 82%. The “% inhibition cSRC(h)” value on cSRC(h) amounted to 16%.

On to `NC(=O)[C@H]1[C@H]2C[C@H]3[C@H]1Nc1nc(ncc1F)Nc1cccc(c1)OCCS[C@@H]3C2` [Example 20], for which the IC50 against FAK(h) and against Pyk2(h) was 101 to 1000 nM in each case.

For the origin of these results see patent US8815872B2, “Macrocyclics pyrimidines as aurora kinase inhibitors” (Merck Patent GmbH, priority 2008, dated 2014).
